From ChEMBL document CHEMBL6092171, “Discovery of Propionic Acid Derivatives with a 5-THIQ Core as Potent and Orally Bioavailable Keap1-Nrf2 Protein-Protein Interaction Inhibitors for Acute Kidney Injury” (J Med Chem, 2024)

How the values were obtained:
Type in all cases: ADME, organism-based
[1] = AUC (0 to t) in Sprague-Dawley rat at 5 mg/kg, po measured upto 24 hrs by LC-MS/MS analysis; conditions: in vivo
[2] = MRT (0 to t) in Sprague-Dawley rat at 5 mg/kg, po measured upto 24 hrs by LC-MS/MS analysis; conditions: in vivo
[3] = MRT (0 to infinity) in Sprague-Dawley rat at 5 mg/kg, po measured upto 24 hrs by LC-MS/MS analysis; conditions: in vivo
[4] = MRT (0 to infinity) in Sprague-Dawley rat at 1 mg/kg, iv measured upto 24 hrs by LC-MS/MS analysis; conditions: in vivo
[5] = AUC (0 to infinity) in Sprague-Dawley rat at 5 mg/kg, po measured upto 24 hrs by LC-MS/MS analysis; conditions: in vivo
[6] = Cmax in Sprague-Dawley rat at 5 mg/kg, po measured upto 24 hrs by LC-MS/MS analysis; conditions: in vivo
[7] = AUC (0 to t) in Sprague-Dawley rat at 1 mg/kg, iv measured upto 24 hrs by LC-MS/MS analysis; conditions: in vivo
[8] = Cmax in Sprague-Dawley rat at 1 mg/kg, iv measured upto 24 hrs by LC-MS/MS analysis; conditions: in vivo
[9] = Half life in Sprague-Dawley rat at 5 mg/kg, po measured upto 24 hrs by LC-MS/MS analysis; conditions: in vivo
[10] = Drug distribution in Sprague-Dawley rat kidney at 5 mg/kg, po; conditions: in vivo
[11] = Volume of distribution in Sprague-Dawley rat at 5 mg/kg, po measured upto 24 hrs by LC-MS/MS analysis; conditions: in vivo
[12] = Tmax in Sprague-Dawley rat at 5 mg/kg, po measured upto 24 hrs by LC-MS/MS analysis; conditions: in vivo
[13] = Apparent clearance during terminal phase in Sprague-Dawley rat at 5 mg/kg, po measured upto 24 hrs by LC-MS/MS analysis; conditions: in vivo
[14] = AUC (0 to infinity) in Sprague-Dawley rat at 1 mg/kg, iv measured upto 24 hrs by LC-MS/MS analysis; conditions: in vivo
[15] = Half life in Sprague-Dawley rat at 1 mg/kg, iv measured upto 24 hrs by LC-MS/MS analysis; conditions: in vivo
[16] = Oral bioavailability in Sprague-Dawley rat at 5 mg/kg measured upto 24 hrs by LC-MS/MS analysis; conditions: in vivo
[17] = Volume of distribution in Sprague-Dawley rat at 1 mg/kg, iv measured upto 24 hrs by LC-MS/MS analysis; conditions: in vivo, read-out: Vz
[18] = MRT (0 to t) in Sprague-Dawley rat at 1 mg/kg, iv measured upto 24 hrs by LC-MS/MS analysis; conditions: in vivo

COc1cc(C(CC(=O)O)c2cccc3c2CCN(C(=O)c2ccc(OC(C)C)cc2Cl)C3)cc2nnn(C)c12 (stereo not drawn) gave an AUC(0-t) at 24 h [1] of 265 ng·h/mL, an MRT last at 24 h [2] of 1.77 h and an MRT inf [3] of 1.85 h. For the same compound, the MRT inf [4] was 0.44 h, the AUC(0-inf) [5] was 266 ng·h/mL and the Cmax [6] was 186 ng/mL. It also gave an AUC(0-t) at 24 h [7] of 267 ng·h/mL, a Cmax [8] of 1640 ng/mL and a half-life [9] of 1.36 h. For the same compound, the Drug uptake [10] was “Active”, the Vz [11] was 46.52 L/kg and the Tmax [12] was 0.29 h. For the same compound, the CL/F [13] was 383 mL/min/kg, the AUC(0-inf) [14] was 268 ng·h/mL and the half-life [15] was 1.19 h. For the same compound, the bioavailability [16] was 20%, the Vd [17] was 6.49 L/kg and the MRT last at 24 h [18] was 0.39 h.
